Patent US20170190671A1, “BIS(ARYL)CATECHOL DERIVATIVES AS HERBICIDES” (E I DU PONT DE NEMOURS AND COMPANY, priority 2014, published 2017)

Tests used:
Assay type in all cases: in vivo
[1] = test system: lambsquarters (Chenopodium album); assay: Test C postemergence; conditions: Chenopodium album, post-emergence, 336 h, Postemergence, scale 0 to 100, read-out: Plant response rating, Lambsquarters
Outline: (§1)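 Seeds sown in a loam soil and sand blend were treated preemergence; plants in peat-moss/vermiculite medium were sprayed at the 1- to 4-leaf stage (2-18 cm). Chemicals were in a non-phytotoxic surfactant-containing solvent. After 13 to 15 days in a greenhouse, injury was visually rated against controls on a 0-100 scale.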

[2] = test system: oilseed rape (Brassica napus); assay: Test C postemergence; conditions: Brassica napus, post-emergence, Postemergence, scale 0 to 100, read-out: Plant response rating, Oilseed Rape
Outline: as §1

[3] = test system: morningglory (Ipomoea coccinea); assay: Test C postemergence; conditions: Ipomoea, post-emergence, 336 h, Postemergence, scale 0 to 100, read-out: Plant response rating, Morningglory
Outline: as §1

[4] = test system: barnyardgrass (Echinochloa crus-galli); assay: Test C postemergence; conditions: Echinochloa crus-galli, post-emergence, Postemergence, scale 0 to 100, read-out: Plant response rating, Barnyardgrass
Outline: as §1

[5] = test system: Italian ryegrass (Lolium multiflorum); assay: Test C postemergence; conditions: Lolium multiflorum, post-emergence, 336 h, Postemergence, scale 0 to 100, read-out: Plant response rating, Ryegrass, Italian
Outline: as §1

[6] = test system: large (Lg) crabgrass (Digitaria sanguinalis); assay: Test C postemergence; conditions: Digitaria sanguinalis, post-emergence, 336 h, Postemergence, scale 0 to 100, read-out: Plant response rating, Crabgrass, Large
Outline: as §1

[7] = test system: ragweed (common ragweed, Ambrosia elatior); assay: Test C postemergence; conditions: Ambrosia artemisiifolia, post-emergence, 336 h, Postemergence, scale 0 to 100, read-out: Plant response rating, Ragweed
Outline: as §1

[8] = test system: giant foxtail (Setaria faberii); assay: Test C postemergence; conditions: Setaria faberi, post-emergence, 336 h, Postemergence, scale 0 to 100, read-out: Plant response rating, Foxtail, Giant
Outline: as §1

[9] = test system: winter wheat (Triticum aestivum); assay: Test C postemergence; conditions: Triticum aestivum, post-emergence, 336 h, Postemergence, scale 0 to 100, read-out: Plant response rating, Wheat
Outline: as §1

soybean (Glycine max) = assay: Test C postemergence; conditions: Glycine max, post-emergence, Postemergence, scale 0 to 100, read-out: Plant response rating, Soybean
Outline: as §1

corn (Zea mays) = assay: Test C postemergence; conditions: Zea mays, post-emergence, 336 h, Postemergence, scale 0 to 100
Outline: as §1

[10] = test system: velvetleaf (Abutilon theophrasti); assay: Test C postemergence; conditions: Abutilon theophrasti, post-emergence, Postemergence, scale 0 to 100, read-out: Plant response rating, Velvetleaf
Outline: as §1

[11] = test system: johnsongrass (Sorghum halepense); assay: Test C postemergence; conditions: Sorghum halepense, post-emergence, 336 h, Postemergence, scale 0 to 100, read-out: Plant response rating, Johnsongrass
Outline: as §1

[12] = test system: blackgrass (Alopecurus myosuroides); assay: Test C postemergence; conditions: Alopecurus myosuroides, post-emergence, 336 h, Postemergence, scale 0 to 100, read-out: Plant response rating, Blackgrass
Outline: as §1

[13] = test system: arrowleaf sida (Sida rhombifolia); assay: Test E preemergence; conditions: scale 0 to 100
Outline: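 Visual ratings from 0 = no effect to 100 = complete control, scored against untreated controls after 14 to 21 days in the greenhouse. Compounds, in a non-phytotoxic solvent mix with surfactant, went onto silt loam soil right after sowing (preemergence) or onto 2–18 cm plants at the 1- to 4-leaf stage (postemergence).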

Fc1cccc(Oc2ncc(Cl)cn2)c1Oc1ncc(C(F)(F)F)cn1 [Compound 43, 5-chloro-2-[5-fluoro-6-[[5-(trifluoromethyl)-2-pyrimidinyl]oxy]phenoxy]pyrimidine]
pest or weed control at 16 g/ha ([1]; 16 g ai/ha): 60% | pest or weed control at 31 g/ha ([1]; 31 g ai/ha): 80% | pest or weed control at 62 g/ha ([1]; 62 g ai/ha): 90% | pest or weed control at 125 g/ha ([1]; 125 g ai/ha): 95% | plant injury at 31 g/ha ([2]; 31 g ai/ha): 50% | plant injury at 62 g/ha ([2]; 62 g ai/ha): 65% | plant injury at 125 g/ha ([2]; 125 g ai/ha): 50% | pest or weed control at 31 g/ha ([3]; 31 g ai/ha): 85% | pest or weed control at 62 g/ha ([3]; 62 g ai/ha): 80% | pest or weed control at 125 g/ha ([3]; 125 g ai/ha): 80% | pest or weed control at 16 g/ha ([4]; 16 g ai/ha): 5% | pest or weed control at 31 g/ha ([4]; 31 g ai/ha): 5% | pest or weed control at 62 g/ha ([4]; 62 g ai/ha): 10% | pest or weed control at 125 g/ha ([4]; 125 g ai/ha): 35% | pest or weed control at 31 g/ha ([5]; 31 g ai/ha): 0% | pest or weed control at 62 g/ha ([5]; 62 g ai/ha): 10% | pest or weed control at 125 g/ha ([5]; 125 g ai/ha): 15% | pest or weed control at 16 g/ha ([6]; 16 g ai/ha): 5% | pest or weed control at 31 g/ha ([6]; 31 g ai/ha): 5% | pest or weed control at 62 g/ha ([6]; 62 g ai/ha): 10% | pest or weed control at 125 g/ha ([6]; 125 g ai/ha): 40% | pest or weed control at 31 g/ha ([7]; 31 g ai/ha): 75% | pest or weed control at 62 g/ha ([7]; 62 g ai/ha): 65% | pest or weed control at 125 g/ha ([7]; 125 g ai/ha): 80% | pest or weed control at 16 g/ha ([8]; 16 g ai/ha): 5% | pest or weed control at 31 g/ha ([8]; 31 g ai/ha): 5% | pest or weed control at 62 g/ha ([8]; 62 g ai/ha): 15% | pest or weed control at 125 g/ha ([8]; 125 g ai/ha): 35% | plant injury at 31 g/ha ([9]; 31 g ai/ha): 0% | plant injury at 62 g/ha ([9]; 62 g ai/ha): 0% | plant injury at 125 g/ha ([9]; 125 g ai/ha): 5% | plant injury at 31 g/ha (soybean (Glycine max); 31 g ai/ha): 55% | plant injury at 62 g/ha (soybean (Glycine max); 62 g ai/ha): 75% | plant injury at 125 g/ha (soybean (Glycine max); 125 g ai/ha): 70% | Corn plant response rating (crop injury, 0 = no effect, 100 = complete kill) at 16 g/ha (corn (Zea mays); 16 g ai/ha): 5% | Corn plant response rating (crop injury, 0 = no effect, 100 = complete kill) at 31 g/ha (corn (Zea mays); 31 g ai/ha): 5% | Corn plant response rating (crop injury, 0 = no effect, 100 = complete kill) at 62 g/ha (corn (Zea mays); 62 g ai/ha): 5% | Corn plant response rating (crop injury, 0 = no effect, 100 = complete kill) at 125 g/ha (corn (Zea mays); 125 g ai/ha): 5% | pest or weed control at 31 g/ha ([10]; 31 g ai/ha): 55% | pest or weed control at 62 g/ha ([10]; 62 g ai/ha): 75% | pest or weed control at 125 g/ha ([10]; 125 g ai/ha): 85% | pest or weed control at 16 g/ha ([11]; 16 g ai/ha): 0% | pest or weed control at 31 g/ha ([11]; 31 g ai/ha): 5% | pest or weed control at 62 g/ha ([11]; 62 g ai/ha): 10% | pest or weed control at 125 g/ha ([11]; 125 g ai/ha): 45% | pest or weed control at 16 g/ha ([12]; 16 g ai/ha): 0% | pest or weed control at 31 g/ha ([12]; 31 g ai/ha): 30% | pest or weed control at 62 g/ha ([12]; 62 g ai/ha): 75% | pest or weed control at 125 g/ha ([12]; 125 g ai/ha): 95% | Plant response rating, Arrowleaf Sida ([13]; 31 g ai/ha): 100 | Plant response rating, Arrowleaf Sida ([13]; 125 g ai/ha): 100
